Measured values: US7094909B2, “HIV protease inhibitors, compositions containing the same, their pharmaceutical uses and materials for their synthesis” (priority 2001, dated 2006)
Read-outs that look alike come from different tables or passages of the source.

Key:
[1] = biological target: T1, HIV-1 protease (Q7S mutant form) (Human immunodeficiency virus type 1 group M subtype B, UniProt P04585, Q495S); assay: HIV-1 Protease RET assay; assay type: biochemical
T1 construct: made in house
Method in brief: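 Ki values fitted with the Morrison tight-binding equation from steady-state RET cleavage (ex 340, em 490 nm) of 5 μM RE(EDANS)SQNYPIVQK(DABCYL)R. Buffer pH 4.8 acetate, 1M NaCl, 5 mM DTT, 1 mg/ml BSA, 10% DMSO; 2 nM Q7S mutant dimer, 37 °C, 12 min.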

[2] = system: HIV-1 (HIV-1 RF, HIV-1 NL4-3) in CEM-SS / MT-2 cells; assay: Cytopathic effect (CPE) inhibition assay (XTT/MTT dye reduction); assay type: cell-based
Method in brief: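 Readout is XTT reduction (A450, 4 h) after six days of culturing virus-infected (moi 0.025–0.819) or mock-infected CEM-SS/MT-2 cells, 2×10^4 per well, with half-log compound series. Antiviral EC50 and cytotoxic CC50 are relative to uninfected compound-free cells. Therapeutic index is CC50 divided by EC50.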

[3] = Ave. Ki (nM), RET assay, Q7S enzyme, Morrison tight binding fit
[4] = Human immunodeficiency virus 1, NL43, read-out: Ave CPE EC50
[5] = Human immunodeficiency virus 1, NL43, unit inferred, read-out: EC50
[6] = Human immunodeficiency virus 1, NL43, read-out: Ave CPE EC50 (mM)

Compound | Ki [1, 3] [nM] | EC50 [2, 4] [nM] | Ki ([1]; Ki, unit inferred) [nM] | EC50 [2, 5] [nM] | EC50 [2, 6] [nM]
CC1(C)SCN(C(=O)[C@@H](O)[C@H](Cc2ccccc2)NC(=O)c2cccc3c2CCN3)[C@@H]1C(=O)NCC1CC1 [Example B28, 2,3-Dihydro-1H-indole-4-carboxylic acid {(1S,2S)-1-benzyl-3-[(R)-4-(cyclopropylmethyl-carbamoyl)-5,5-dimethyl-thiazoldin-3-yl]-2-hydroxy-3-oxo-propyl}-amide] | 4.2 | 731 | – | – | –
Cc1c(O)cccc1C(=O)N[C@@H](Cc1ccccc1)[C@H](O)C(=O)N1CSC(C)(C)[C@H]1C(=O)N[C@@H]1CCCc2occc21 [Example A47, 3-[2-Hydroxy-3-(3-hydroxy-2-methyl-benzoylamino)-4-phenyl-butyryl]-5,5-dimethyl-thiazolidine-4-carboxylic acid (4,5,6,7-tetrahydro-benzofuran-4-yl)-amide] | 0.27 | 196 | – | – | –
Cc1ccccc1CNC(=O)[C@@H]1C2CCC(CC2)N1C(=O)[C@@H](O)[C@H](Cc1ccccc1)NC(=O)c1cccc(O)c1C | – | – | 9.8 | ≥ 3200 | –
C#CCNC(=O)[C@H]1N(C(=O)[C@@H](O)[C@H](Cc2ccccc2)NC(=O)c2cccc3c2CCN3)CSC1(C)C [Example B34, 2,3-Dihydro-1H-indole-4-carboxylic acid [(1S,2S)-1-benzyl-3-((R)-5,5-dimethyl-4-prop-2-ynylcarbamoyl-thiazoldin-3-yl)-2-hydroxy-3-oxo-propyl]-amide] | 1.2 | 389 | – | – | –
C=CCNC(=O)N[C@@H](Cc1ccccc1)[C@H](O)C(=O)N1CSC(C)(C)[C@H]1C(=O)NCc1ccccc1C [Example B13, (R)-3-[(2S,3S)-3-(3-Allyl-ureido)-2-hydroxy-4-phenyl-butyryl]-5,5-dimethyl-thiazolidine-4-carboxylic acid 2-methyl-benzylamide] | 2 | 1460 | – | – | –
Cc1ccccc1C(=O)N[C@@H](Cc1ccccc1)[C@H](O)C(=O)N1CSC(C)(C)[C@H]1C(=O)N[C@H]1CCc2ccccc21 [Example B78, (R)-3-{(2S,3S)-2-Hydroxy-4-phenyl-3-[(1-o-tolyl-methanoyl)-amino]-butanoyl}-5,5-dimethyl-thiazolidine-4-carboxylic acid (S)-indan-1-ylamide] | 0.18 | 557 | – | – | –
CCCC(C)C(=O)NC(Cc1ccccc1)[C@H](O)C(=O)N1CSC(C)(C)C1C(=O)NCc1ccccc1C (stereo partly shown) | – | – | 12.6 | ≥ 3200 | –
Cc1ccccc1CNC(=O)[C@H]1N(C(=O)[C@@H](O)[C@H](Cc2ccccc2)NC(=O)CCCO)CSC1(C)C [Example B85] | 1.3 | 363 | – | – | –
CCC(C)C(=O)N[C@@H](Cc1ccccc1)[C@H](O)C(=O)N1CSC(C)(C)[C@H]1C(=O)NCc1ccccc1C (stereo partly drawn) [Example B12, (R)-3-[(2S,3S)-2-Hydroxy-3-(2-methyl-butyrylamino)-4-phenyl-butyryl]-5,5-dimethyl-thiazolidine-4-carboxylic acid 2-methyl-benzylamide] | 9.9 | > 1000 | – | – | –
CC1(C)SCN(C(=O)[C@@H](O)[C@H](Cc2ccccc2)NC(=O)[C@@H]2CCCO2)[C@@H]1C(=O)N[C@H]1CCCc2ccccc21 | – | – | 4.3 | 1190 | –
Cc1c(O)cccc1C(=O)N[C@@H](Cc1ccccc1)[C@H](O)C(=O)N1CC(F)(F)C[C@H]1C(=O)NCc1ccc2c(c1)OCO2 [Example C11, 4,4-Difluoro-1-[2-hydroxy-3-(3-hydroxy-2-methyl-benzoylamino)-4-phenyl-butyryl]-pyrrolidine-2-carboxylic acid (benzo[1,3]dioxol-5-ylmethyl)-amide] | 2.8 | 1310 | – | – | –
C=CCNC(=O)[C@H]1N(C(=O)[C@@H](O)[C@H](Cc2ccccc2)NC(=O)COc2c(C)cccc2C)CSC1(C)C [Example B23, (R)-3-{(2S,3S)-3-[2-(2,6-Dimethyl-phenoxy)-ethanoylamino]-2-hydroxy-4-phenyl-butanoyl}-5,5-dimethyl-thiazolidine-4-carboxylic acid allylamide] | 0.15 | 294 | – | – | –
Cc1ccccc1CNC(=O)[C@H]1N(C(=O)[C@@H](O)[C@H](Cc2ccccc2)NC(=O)c2cccc(O)c2C)CC(=O)C1(C)C [Example C48, 1-[2-Hydroxy-3-(3-hydroxy-2-methyl-benzoylamino)-4-phenyl-butyryl]-3,3-dimethyl-4-oxo-pyrrolidine-2-carboxylic acid 2-methyl-benzylamide] | < 0.1 | 128 | – | – | –
Cc1c(O)cccc1C(=O)N[C@@H](Cc1ccccc1)[C@H](O)C(=O)N1CSC(C)(C)[C@H]1C(=O)NCc1ccc2c(c1)OC(F)(F)O2 [Example A59, (R)-3-((2S,3S)-2-Hydroxy-3-{[1-(3-hydroxy-2-methyl-phenyl)-methanoyl]-amino}-4-phenyl-butanoyl)-5,5-dimethyl-thiazolidine-4-carboxylic acid (2,2-difluoro-benzo[1,3]dioxol-5-ylmethyl)-amide] | 0.19 | – | – | – | 417
CC(=O)C(=O)N[C@@H](Cc1ccccc1)[C@H](O)C(=O)N1CSC(C)(C)[C@H]1C(=O)NCc1ccccc1C | – | – | 4.7 | ≥ 1000 | –
Cc1ccccc1CNC(=O)[C@H]1N(C(=O)[C@@H](O)[C@H](Cc2ccccc2)NC(=O)N2CC[C@@H](O)C2)CSC1(C)C [Example B3, 3-(2-hydroxy-3-{[1-(3-hydroxy-pyrrolidin-yl)-methanoyl]-amino}-4-phenyl-butanoyl)-5,5-dimethyl-thiazolidine-4-carboxylic acid-2-methyl-benzylamide] | 2.5 | – | – | – | 905
CC1(C)SCN(C(=O)[C@@H](O)[C@H](Cc2ccccc2)NC(=O)c2cccc3c2CCN3)[C@@H]1C(=O)N[C@H]1CCc2ccccc21 [Example B42, 2,3-Dihydro-1H-indole-4carboxylic acid {(1S,2S)-1-benzyl-2-hydroxy-3-[(R)-4-((S)-indan-1-ylcarbamoyl)-5,5-dimethyl-thiazolidin-3-yl]-3-oxo-propyl}-amide] | 0.13 | 155 | – | – | –
Cc1ccccc1CNC(=O)[C@H]1N(C(=O)[C@@H](O)[C@H](Cc2ccccc2)NC(=O)OC(C)(C)C)CSC1(C)C | – | – | 3 | 1290 | –
CC1(C)SCN(C(=O)[C@@H](O)[C@H](Cc2ccccc2)NC(=O)O[C@H]2CCOC2)[C@@H]1C(=O)N[C@@H]1CCOc2ccccc21 | – | – | 3.7 | 1550 | –
Cc1ccccc1CNC(=O)[C@@H]1N(C(=O)[C@@H](O)[C@H](Cc2ccccc2)NC(=O)c2cccc(O)c2C)CSC12CCCC2 | – | – | 0.34 | 40 | –
Cc1cccc(C)c1OCC(=O)N[C@@H](Cc1ccccc1)[C@H](O)C(=O)N1CSC(C)(C)[C@H]1C(=O)NCc1ccco1 [Example B38, (R)-3-{(2S,3S)-3-[2-(2,6-Dimethyl-phenoxy)-ethanoylamino]-2-hydroxy-4-phenyl-butanoyl}-5,5-dimethyl-thiazolidine-4-carboxylic acid (furan-2-ylmethyl)-amide] | 0.16 | 600 | – | – | –
Cc1cc(O)c(C)c(C(=O)N[C@@H](Cc2ccccc2)[C@H](O)C(=O)N2CC(F)(F)C(C)(C)[C@H]2C(=O)NCC(C)C)c1 [Example D5, (S)-4,4-Difluoro-1-[(2S,3S)-2-hydroxy-3-(3-hydroxy-2,5-dimethyl-benzoylamino)-4-phenyl-butyryl]-3,3-dimethyl-pyrrolidine-2-carboxylic acid isobutyl-amide] | < 0.1 | 11 | – | – | –
Cc1ccccc1CNC(=O)C1N(C(=O)[C@@H](O)[C@H](Cc2ccccc2)NC(=O)CSc2nncn2C)CSC1(C)C (stereo partly shown) | – | – | 82 | ≥ 3200 | –
